Patent US7098195B2, “Fluorinated glucosamine analogs useful for modulating post-translational glycosylations on cells” (Health Research, Inc., priority 2001, dated 2006)
Where two headings read alike, the source gives them in different places.

How the values were obtained:
[1] = test system: terminal GlcNAc or GlcNAcβ1,4GlcNAc (WGA staining); assay: Lectin blot with WGA of CLA+ T-cell lysates; assay type: cell-based, human; conditions: compared with PBS or GlcNAc treatments
Method: (§1) For lectin blotting, cell lysates (25 μg/spot) were spotted onto methanol-permeabilized PVDF membrane and blocked in FBS for 1 h at RT. Blots were then probed with AP-Canavalia ensiformis agglutinin (ConA) (2.0 μg/ml PBS; specificity: α-mannose), AP-Triticum vulgaris (Wheat germ) agglutinin (WGA) (0.5 μg/ml PBS; specificity: terminal GlcNAc or GlcNAcβ1,4GlcNAc) or AP-Lycopersicon esculentum (tomato lectin) agglutinin (LEA) (1.0 μg/ml PBS; specificity: (Galβ1,4GlcNAc)n) for 1 h at RT (All lectins from EY Labs., Inc., San Mateo, Calif.). After washing 3× in PBS/0.1% Tween-20 and 1× in PBS (10 min each), blots were developed with Western Blue®.
(§2) To analyze and identify the glycan modifications on CLA^+ T-cells treated with 4-F-GlcNAc, lectin blotting experiments were performed with ConA (Specificity: α-mannose), WGA (Specificity: terminal GlcNAc or GlcNAcβ1,4GlcNAc) and LEA (Specificity: {Galβ1,4GlcNAc}n).

[2] = test system: C57BL6 mice; assay: DNFB-induced delayed type hypersensitivity (ear swelling) in mice; assay type: in vivo, mouse
Method: Previous studies evaluating the anti-tumor and anti-metastatic effects of fluorinated hexosamine analogs and 3 or 4-F-GlcNAc, specifically, indicate that the dose limiting toxicity was ˜250 mg/kg×6 days and that i.p. administration of these sugar analogs was an efficacious mode of delivery. Thus, in these studies, a maximal dose of 250 mg/kg as well as 100 and […] doses were used in order to make both toxic and efficacy assessments of fluorinated hexosamine analog anti-inflammatory effects. To induce delayed type hypersensitivity (DTH), C57BL6 mice were sensitized on their abdomen on days 0 and 1 with 25 μl of 0.5% 2,4-dinitrofluorobenzene (DNFB) (i.e. hapten) in a 4:1 solution of acetone to olive oil (vehicle). Negative control mice were sensitized with vehicle alone. Mice were then treated from days 0–6 with drug vehicle (0.9% saline), 50 mg/kg 4-F-GlcNAc, 100 mg/kg 4-F-GlcNAc, 250 mg/kg 4-F-GlcNAc or 250 mg/kg GlcNAc (negative sugar control). Hapten-induced inflammation was then promoted on day 6 by challenging the mice with 10 μl of 0.25% DNFB on both sides of the right ear and mice also received 10 μl of vehicle alone on both sides of the left ear as a negative inflammatory control. Ear swelling responses were measured 24 h later on day 7 and subtracted from baseline measurements that were recorded on day 6.
Histological analysis of right ears from mice receiving sensitizing and challenging hapten doses that were treated with saline vehicle control did show the presence of lymphocytic infiltrate and amount of lymphocytic infiltrate corresponded to ear swelling measurements (See FIG. 14 Panel B).

[3] = test system: (Galβ1,4GlcNAc)n (LEA staining); assay: Lectin blot with LEA of CLA+ T-cell lysates; assay type: cell-based, human; conditions: compared with PBS or GlcNAc treatments
Method: as §1, §2

[4] = test system: human colon HT-29 cancer cells; conditions: HT-29 cells; cited from earlier work
[5] = previous studies; cited from earlier work
[6] = test system: L-selectin ligand activity of human CLA+ T-cells; assay: Parallel-plate flow chamber, CLA+ T-cell rolling on L-selectin chimera; assay type: cell-based
Method: Tethering and rolling of human T-cells on recombinant human E- and P-selectin-Ig chimera (provided by Dr. Robert Fuhlbrigge, Harvard Medical School) and human L-selectin-Ig (gift from Dr. Ray Camphausen, Wyeth/Genetics Institute, Inc., Cambridge, Mass.) were analyzed in the parallel-plate flow chamber under physiologic shear stress conditions (3). To prepare E- and P-selectin-Ig chimera spots, protein A (300 μg/15 μl 0.1M NaHCO3) was adsorbed to Ten-twenty-nine™ Petri dishes for 2 h at 37° C. Human serum albumin ([…] PBS) then added and incubated for 2 h at 37° C. to block non-specific binding sites. E-selectin-Ig (50 ng/50 μl PBS) or P-selectin-Ig (50 ng/50 μl PBS) solutions was pipetted directly over the pre-existing protein A spots for 18 h at 4° C. To prepare L-selectin-Ig spots, L-selectin-Ig (300 ng/15 μl PBS) or isotype control human IgG (300 ng/15 μl) were adsorbed directly to plastic (non-protein A-coated) for 18 h at 4° C. and blocked in 100% FBS for 2 h at 4° C.
CLA^+ T-cells or freshly isolated PBL were treated with neuraminidase and metabolic glycosylation inhibitors or with protease (bromelain) as described above, washed twice in HBSS, suspended at 2×10^6/ml in HBSS/10 mM HEPES/2 mM CaCl2 (H/H/Ca^++) and infused into the chamber over selectin chimeras. Protease treatment was performed to control for residual E-selectin activity not attributable to the expression of CLA on a protein scaffold. Cell tethering was permitted at 0.6 dynes/cm^2 for 1 min, then stepwise increments in shear stress every 15 sec were employed to a final shear stress level of 60 dynes/cm^2. The number of cells rolling/viewing field (at 100× magnification) was quantified at each level of shear stress in triplicates for a minimum of three experiments. […] Negative control experiments were performed in parallel, wherein cell binding was examined in H/H adhesion assay medium containing 5 mM EDTA as well as assaying cell binding to human IgG isotype control.
Utilizing the parallel-plate flow chamber under physiologic shear stress conditions, E-, P- and L-selectin ligand activities of human CLA^+ T-cells treated were analyzed in an identical manner as cells prepared for Western blotting and autoradiography studies.

[7] = test system: HCELL/CD44 activity on human hematopoietic KG1a cells; assay: Stamper-Woodruff adhesion assay, L-selectin-dependent lymphocyte adherence to KG1a cells; assay type: cell-based; conditions: KG1a neuraminidase then recovery in 0.02 mM

CC(=O)N[C@H]1C(OC(C)=O)O[C@H](COC(C)=O)[C@@H](F)[C@@H]1OC(C)=O (stereo partly drawn) [4-F-GlcNAc, 2-acetamido-2-deoxy-1,3,6-tri-O-acetyl-4-deoxy-4-fluoro-D-glucopyranose]
WGA staining of lysates [1]: elevated
inflammatory response (ear swelling) ([2]; 50 mg/kg, days 0–6, i.p., p<0.0002): statistically significant diminution
inflammatory response (ear swelling) ([2]; 100 mg/kg, days 0–6, i.p.): completely abrogated
inflammatory response (ear swelling) ([2]; 250 mg/kg, days 0–6, i.p.): completely abrogated
inflammatory responses in FucTVII −/− mice ([2]; FucTVII −/− mice): further reduced
LEA staining of lysates [3]: notably diminished
radiolabeled sugar incorporation into cell surface glycoproteins [4]: inhibition of radiolabeled glucosamine, fucose and galactose incorporation
dose limiting toxicity [5]: ~250 mg/kg×6 days
rolling adhesions on L-selectin chimera ([6]; at 2.0 dynes/cm^2, tunicamycin 0.02 mM, swainsonine 0.23 mM, 4-F-GlcNAc 0.05 mM, BAG 2.0 mM, p<0.01): significant reductions

CC(=O)N[C@H]1C(O)O[C@H](CO)[C@@H](O)[C@@H]1O (some centres unmarked) [GlcNAc, N-acetylglucosamine]
inflammatory response (ear swelling) ([2]; 250 mg/kg negative sugar control, days 0–6): no anti-inflammatory effect
recovery of L-selectin ligand activity ([6]; 30 h following neuraminidase digestion, drug control): > 80 % recovery

O[C@H]1[C@H]2[C@H](O)CCCN2C[C@H]1O [swainsonine]
rolling adhesions on L-selectin chimera [6]: no effect

tunicamycin
WGA staining of lysates [1]: eliminated
LEA staining of lysates [3]: eliminated
% Inhibition (lymphocyte binding) [7]: 99%
Mean Lymphocyte Binding [7]: 3.0
rolling adhesions on L-selectin chimera [6]: significant reductions
